Results taken from EP0628545A1, “13,14-Dihydro-PGF2BETA and its isopropyl ester” (ONO PHARMACEUTICAL CO., LTD., priority 1993, dated 1994).

Tests used:
intraocular pressure = test: Reducing effect of intraocular pressure after instillation into the rabbit eye (Experiment 1); assay type: in vivo, Japanese White rabbits; conditions: for Δ IOP, Reducing Effects of Intraocular Pressure: 50 µl instilled into left eye, vehicle-corrected, average of three samples; for Change in I.O.P.: area over 0 mmHg minus area under 0 mmHg of the IOP-time graph, 0-6 hr, minus = reduction
Description: For example, in a standard laboratory test the following data shown in Table 1 and 2 and in the accompanying Figure 1 were obtained. Average of the value of three samples are shown as each data. In the Figure reduction in intraocular pressure is plotted against time after administration for the compound of the invention and three comparison compounds.
Male Japanese White rabbits weighing about 3.0 kg were lightly held and the intraocular pressure was measured by Applanation Pneumatonograph after corneal anesthesia with instillation of 0.4% oxybuprocaine hydrochloride solution.
A 0.1% solution of a test compound was dissolved in vehicle which contains 2.5% conc. glycerol and 2.0% Polysorbate 80 in sterile purified water. The test solution at volume of 50 µl was instilled into left eye of each rabbit and the right eye remained untreated. As a control, the vehicle was instilled into left eye in a control group. Δ IOP (mmHg), which is an index of intraocular pressure-reducing effect, were calculated using below formula. IOP = (IOPt - IOP₀) - (IOPvt - IOPv0 ) [formula] IOPt : IOP at t hr after instillation of a test solution IOPvt : IOP at t hr after instillation of vehicle IOP₀ : IOP just before instillation of a test solution IOPv0 : IOP just before instillation of vehicle
Taking into consideration the continuous time of occurrence of the reduction effect and the intensity of the effect, the superiority of the compound of the present invention to the compared compound is clear. On the graph 1, the squares i.e. reducing effect of intraocular pressure, were calculated: That is, squares under 0 mmHg put minus and squares over 0 mmHg put plus, and the total squares are calculated and the values are shown in the Table 2.
On the graph of the intraocular pressure in course of time, area of the square (mmHg x hr) in elevation i.e. square over 0 mmHg and area of the square (mmHg x hr) in the reduction i.e. square under 0 mmHg were calculated and from the value of the former was subtracted the one of the latter. The minus-resulted value means reduction of intraocular pressure and the plus-resulted value means elevation of intraocular pressure.

[1] = Detection of compound and metabolite in eye tissue homogenates by liquid chromatography-mass spectrum after eye drop administration (Experiment 2); assay type: in vivo, Japanese White rabbits; conditions: 1 Hr after the last administration; for detection in the homogenates of aqueous humor, cornea or iris/ciliary body: eye drop solution of Example 1 three times every 5 mins in saccus conjunctivae
Description: Japanese White rabbits weighing 3.0 kg were used. Eye drop solution of Example 1 was administered three times every 5 mins in saccus conjunctivae. 1 Hr after the last administration, aqueous humor, cornea and iris/ciliary body were collected and homogenized respectively. The homogenates were measured by liquid chromatography-Mass spectrum.

[2] = 0 hr after administration (baseline), 0.1% solution
[3] = 1 hr after administration, 0.1% solution
[4] = 2 hr after administration, 0.1% solution
[5] = 4 hr after administration, 0.1% solution
[6] = 6 hr after administration, 0.1% solution

Row | SMILES | Δ IOP, Reducing Effects of Intraocular Pressure (intraocular pressure; [2]) | continued elevation of the intraocular pressure (intraocular pressure; 0.1% solution) | initial elevation of the intraocular pressure (intraocular pressure; 0.1% solution) | time after administration at which the reducing effect appeared (intraocular pressure; 0.1% solution) | Δ IOP, Reducing Effects of Intraocular Pressure (intraocular pressure; [3]) | Δ IOP, Reducing Effects of Intraocular Pressure (intraocular pressure; [4]) | Δ IOP, Reducing Effects of Intraocular Pressure (intraocular pressure; [5]) | Δ IOP, Reducing Effects of Intraocular Pressure (intraocular pressure; [6]) | Change in I.O.P. (intraocular pressure; 0.1% solution) | maximum reduction of IOP (intraocular pressure; 0.1% solution) | bulbar and palpebral conjunctival hyperemia (intraocular pressure; after instillation of 0.1% solution) | activity (reduction of intraocular pressure) reached (intraocular pressure; at 2 hrs after administration, same level maintained till 6 hrs) | hydrolysis on cornea ([1]; eye drop solution of Example 1) | detection in the homogenates of aqueous humor, cornea or iris/ciliary body [1]
1 | CCCCC[C@H](O)/C=C/[C@@H]1[C@@H](C/C=C\CCCC(=O)OC(C)C)[C@@H](O)C[C@@H]1O [Compared compound 1, 11-epi-PGF2α isopropyl ester] | 0 mm Hg | continuous elevation till 6 hrs | showed initial elevation | > 6 h | 3.5 mm Hg | 1.5 mm Hg | 1.5 mm Hg | 0.2 mm Hg | 8.95 mmHg x hr | – | – | – | – | –
2 | CCCCC[C@H](O)/C=C/[C@@H]1[C@@H](C/C=C\CCCC(=O)OC(C)C)[C@@H](O)C[C@H]1O [Compared compound 2, PGF2α isopropyl ester] | 0 mm Hg | – | extremely strong initial elevation | ~4 h | 13.7 mm Hg | 3.7 mm Hg | -1 mm Hg | -5.8 mm Hg | 11.36 mmHg x hr | – | – | – | – | –
3 | CCCCC[C@H](O)CC[C@@H]1[C@@H](C/C=C\CCCC(=O)OC)[C@@H](O)C[C@H]1O [Compared compound 3, 13,14-dihydro-PGF2α methyl ester] | 0 mm Hg | – | showed initial elevation | ~4 h | 3.3 mm Hg | -1.3 mm Hg | -0.7 mm Hg | -4.3 mm Hg | -4.35 mmHg x hr | – | – | – | – | –
4 | CCCCC[C@H](O)CC[C@@H]1[C@@H](C/C=C\CCCC(=O)OC(C)C)[C@H](O)C[C@H]1O [Example 1, 13,14-dihydro-PGF2β isopropyl ester] | 0 mm Hg | – | did not show initial elevation | 1 h | -1.8 mm Hg | -5.5 mm Hg | -5.5 mm Hg | -5.3 mm Hg | -26.35 mmHg x hr | 5.5 mmHg | not observed | 5.5 mmHg | hydrolysed into the compound of Example 2 | not detected
5 | CCCCC[C@H](O)CC[C@@H]1[C@@H](C/C=C\CCCC(=O)O)[C@H](O)C[C@H]1O [Example 2, 13,14-dihydro-prostaglandin F2β] | – | – | – | – | – | – | – | – | – | – | – | – | – | detected
